Among the data in paper PMC6086658, “Unified mechanisms for self-RNA recognition by RIG-I Singleton-Merten syndrome variants” (eLife, 2018) are Kd values, retold here.

One test concerns the target T1, RIG-I E373Q (Homo sapiens, UniProt O95786, E373Q).
T1 construct: different full-length RIG-I mutants (1–925, N-terminal His-tag); made in house; host or cells: High Five (Trichoplusia ni) insect cells, baculovirus, pFBDM vector
T1 sequence (O95786 1-925 E373Q): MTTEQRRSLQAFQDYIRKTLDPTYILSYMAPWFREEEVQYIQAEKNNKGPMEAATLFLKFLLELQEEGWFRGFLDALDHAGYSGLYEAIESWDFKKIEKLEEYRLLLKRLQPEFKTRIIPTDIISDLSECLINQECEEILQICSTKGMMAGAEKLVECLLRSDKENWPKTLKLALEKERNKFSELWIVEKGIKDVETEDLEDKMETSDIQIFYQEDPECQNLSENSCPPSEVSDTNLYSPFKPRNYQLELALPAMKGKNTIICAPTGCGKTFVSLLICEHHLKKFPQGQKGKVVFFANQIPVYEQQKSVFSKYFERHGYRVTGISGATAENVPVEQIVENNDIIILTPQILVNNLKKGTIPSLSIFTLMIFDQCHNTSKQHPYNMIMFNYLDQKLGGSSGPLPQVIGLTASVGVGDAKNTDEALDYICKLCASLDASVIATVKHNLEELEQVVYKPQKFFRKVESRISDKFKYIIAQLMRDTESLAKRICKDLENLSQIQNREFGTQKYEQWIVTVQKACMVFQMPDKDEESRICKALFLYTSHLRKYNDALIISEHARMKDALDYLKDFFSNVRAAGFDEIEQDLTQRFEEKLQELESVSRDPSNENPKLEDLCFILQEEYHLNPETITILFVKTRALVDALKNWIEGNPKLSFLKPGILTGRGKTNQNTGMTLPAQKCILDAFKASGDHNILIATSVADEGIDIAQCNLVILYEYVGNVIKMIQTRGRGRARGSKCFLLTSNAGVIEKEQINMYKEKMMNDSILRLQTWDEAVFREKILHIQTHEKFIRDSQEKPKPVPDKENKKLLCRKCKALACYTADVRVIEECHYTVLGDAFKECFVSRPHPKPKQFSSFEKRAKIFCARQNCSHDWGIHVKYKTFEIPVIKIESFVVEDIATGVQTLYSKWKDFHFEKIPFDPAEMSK
The test is described as follows: MANT-nucleotide binding, tryptophan fluorescence FRET. To be noted: n = 4. The procedure: (§1) Binding of MANT-ATP and MANT-ATPγS to different full-length RIG-I mutants (1–925, N-terminal His-tag) was determined via Förster resonance energy transfer from RIG-I to MANT-ATP (Jena Bioscience, Jena, Germany). […] Fluorescence of MANT-ATP was measured in a TECAN M1000 microplate reader at λex/em = 290/448 nm, gain = 170 using an average of five reads per well. Assays were performed four times in independent experiments using the same protein purification batch. For determination of affinities fluorescence values were fitted to Equation (1) using R, where y is the fluorescence, [P] is the protein concentration, Bmax is the maximal fluorescence and KD is the dissociation constant. Fitting was performed globally on all available datasets. Representative values in figures are mean values ± SD.

The next test addresses T2, RIG-I (Homo sapiens, UniProt O95786).
T2 construct: Recombinant full-length human RIG-I or RIG-I single amino acid mutants (1–925, N-terminal His-tag); made in house; host or cells: High Five (Trichoplusia ni) insect cells, baculovirus, pFBDM vector
T2 sequence (O95786 1-925): T1 sequence (O95786 1-925 E373Q) with Q373E
The test is described as above. To be noted: absence of RNA; full-length His-RIG-I; n = 4; read-out: Affinity (KD) to RIG-I. The procedure: as §1

Residue numbers refer to the chain shown, from its start. Where two headings read alike, the source gives them in different places.

With MANT-ATP, the dissociation constant (Kd) was determined as 72 ± 13 µM at RIG-I E373Q (absence of RNA, read-out: Affinity (KD) to RIG-I E373Q); 28 ± 5 µM at RIG-I E373Q (presence of equimolar 14mer dsRNA, read-out: Affinity (KD) to RIG-I E373Q + RNA); 72 ± 13 µM at RIG-I.

As usually defined, the Kd is the equilibrium constant for the complex coming apart.
